EC50 data for 20 compounds are collected here from patent US20260374794A1, “COMPOUNDS TARGETING MUTANT OF P53” (JACOBIO PHARMACEUTICALS CO., LTD., priority 2022, published 2026).

In this assay the target is T1, p53(Y220C) (Homo sapiens, UniProt P04637, Y220C).
T1 construct: His-p53 Y220C (94-294) protein
Description: In vitro DNA binding assay (HTRF), His-p53 Y220C (94-294) with biotinylated p53 consensus DNA. The assay is classed as biochemical. The method, then: After His-p53 Y220C (94-294) protein was placed with a compound in the present of MAb Anti His-Tb cryptate (Cisbio, Cat. NO. 61HI2TLA) in a 384 well microplate (Greiner) for 15 min at 25 °C, the assay plate was transferred into 27 °C incubator and incubated for 60 min. Biotinalyted p53 consensus DNA (ID: p53-SEQUENCE 2 —F: 5′(biotin)-[…] 3′ —R: 5′ […] 3′) was added into the assay plate in the present of Streptaidin-d2 (Cisbio, Cat. NO. 610SADLF) cryptate (Final concentration: 20 mM HEPES pH=7.4, 75 mM KCl, 1 mM MgCl2, 0.1% (w/v) BSA, 1 mM DTT, 2.5 nM His-P53 Y220C (94-294) protein, 0.33 nM MAb Anti His-Tb cryptate, 2.5 nM Streptaidin-d2 cryptate, 10 nM Biotinalyted DNA) and incubated for another 60 min. Wells containing 2 μM reference compound Ref-1a served as high control, and wells containing same percentage of DMSO served as low control. Homogeneous time-resolved fluorescence (HTRF) signals were read on Tecan Spark multimode microplate reader. HTRF ratios for each individual well were calculated by equation: HTRF ratio=(Signal F665/Signal F620)*1000. The percent of activation of compounds treated wells were normalized between high control and low control (% Activation=(HTRF ratiocompound treated−HTRF ratiolow control)/(HTRF ratiohigh control−HTRF ratiolow control)*100%). Then the data were analyzed either by fitting a 4-parameter logistic model or by Excel to calculate EC50 values. And the EC50 was the concentration at 50% Activation on the curve.
On the technique in general: TR-FRET usually uses a lanthanide donor and a delayed reading to cut background.

Setting [1] is: HTRF, 27 °C, His-p53 Y220C (94-294) 2.5 nM, biotinylated DNA 10 nM, normalized to 2 μM Ref-1a, EC50 = concentration at 50% Activation, read-out: p53(Y220C) EC50.

Where two headings read alike, the source gives them in different places.

Take `COc1cc(P(C)(C)=O)ccc1NCC#Cc1sc2c(NC3CCN(C)CC3)nccc2c1CC(F)(F)F` [Example 4, (3-methoxy-4-((3-(7-((1-methylpiperidin-4-yl)amino)-3-(2,2,2-trifluoroethyl)thieno[2,3-c]pyridin-2-yl)prop-2-yn-1-yl)amino)phenyl)dimethylphosphine oxide]: the EC50 under setting [1] came to 353 nM. On the same count and under the same terms, the figure for `COc1cc(N2CC(=O)NS2(=O)=O)ccc1NCC#Cc1sc2c(N[C@@H]3CCN(C)C[C@@H]3F)cccc2c1CC(F)(F)F` [Example 5, 5-(4-((3-(7-(((3S,4R)-3-fluoro-1-methylpiperidin-4-yl)amino)-3-(2,2,2-trifluoroethyl)benzo[b]thiophen-2-yl)prop-2-yn-1-yl)amino)-3-methoxyphenyl)-1,2,5-thiadiazolidin-3-one-1,1-dioxide] is 323 nM; for `COc1cc(P(C)(C)=O)ccc1NCC#Cc1sc2c(NC3CCS(=N)(=O)CC3)cccc2c1CC(F)(F)F` (centres unmarked) [Example 6, (4-((3-(7-((1-imino-1-oxidohexahydro-1l6-thiopyran-4-yl)amino)-3-(2,2,2-trifluoroethyl)benzo[b]thiophen-2-yl)prop-2-yn-1-yl)amino)-3-methoxyphenyl)dimethylphosphine oxide] it is 209 nM; for `COc1cc(P(C)(C)=O)ccc1NCC#Cc1sc2c(NCC3(F)CCN(C)CC3)cccc2c1CC(F)(F)F` [Example 16, (4-((3-(7-(((4-fluoro-1-methylpiperidin-4-yl)methyl)amino)-3-(2,2,2-trifluoroethyl)benzo[b]thiophen-2-yl)prop-2-yn-1-yl)amino)-3-methoxyphenyl)dimethylphosphine oxide] it is 250 nM. `COc1cc(P(C)(C)=O)ccc1NCC#Cc1sc2c(N[C@H]3CCN(C)C[C@H]3F)cccc2c1C(C)C(F)(F)F` (stereo partly drawn) [Example 17, (4-((3-(7-(((3R,4S)-3-fluoro-1-methylpiperidin-4-yl)amino)-3-(1,1,1-trifluoropropan-2-yl)benzo[b]thiophen-2-yl)prop-2-yn-1-yl)amino)-3-methoxyphenyl)dimethylphosphine oxide]: the EC50 under setting [1] came to 251 nM. For the compound `COc1cc(P(C)(C)=O)ccc1NCC#Cc1sc2c(N[C@@H]3CCN(C)C[C@@H]3F)cccc2c1C(C)C(F)(F)F` (stereo partly drawn) [Example 18, (4-((3-(7-(((3S,4R)-3-fluoro-1-methylpiperidin-4-yl)amino)-3-(1,1,1-trifluoropropan-2-yl)benzo[b]thiophen-2-yl)prop-2-yn-1-yl)amino)-3-methoxyphenyl)dimethylphosphine oxide], the EC50 under setting [1] was determined as 574 nM. Consider `CN1CC[C@@H](Nc2cccc3c(CC(F)(F)F)c(C#C[C@@H]4Cc5cc(P(C)(C)=O)ccc5N4)sc23)[C@@H](F)C1` [Example 21, ((S)-2-((7-(((3S,4R)-3-fluoro-1-methylpiperidin-4-yl)amino)-3-(2,2,2-trifluoroethyl)benzo[b]thiophen-2-yl)ethynyl)indolin-5-yl)dimethylphosphine oxide], for which the EC50 under setting [1] turned out to be 424 nM.

With `CN1CC[C@@H](Nc2cccc3c(CC(F)(F)F)c(C#C[C@H]4Cc5cc(P(C)(C)=O)ccc5N4)sc23)[C@@H](F)C1` [Example 22, ((R)-2-((7-(((3S,4R)-3-fluoro-1-methylpiperidin-4-yl)amino)-3-(2,2,2-trifluoroethyl)benzo[b]thiophen-2-yl)ethynyl)indolin-5-yl)dimethylphosphine oxide], the EC50 under setting [1] turned out to be 313 nM. For the compound `COc1cc([S@](=N)(=O)C2CCOCC2)ccc1NCC#Cc1sc2c(N[C@@H]3CCN(C)C[C@@H]3F)cccc2c1CC(F)(F)F` [Example 25, (R)-(4-((3-(7-(((3S,4R)-3-fluoro-1-methylpiperidin-4-yl)amino)-3-(2,2,2-trifluoroethyl)benzo[b]thiophen-2-yl)prop-2-yn-1-yl)amino)-3-methoxyphenyl)(imino)(tetrahydro-2H-pyran-4-yl)-16-sulfanone], the EC50 under setting [1] stood at 62 nM. `COc1cc([S@@](=N)(=O)C(C)C)ccc1NCC#Cc1sc2c(N[C@@H]3CCN(C)C[C@@H]3F)cccc2c1CC(F)(F)F` [Example 27, (S)-(4-((3-(7-(((3S,4R)-3-fluoro-1-methylpiperidin-4-yl)amino)-3-(2,2,2-trifluoroethyl)benzo[b]thiophen-2-yl)prop-2-yn-1-yl)amino)-3-methoxyphenyl)(imino)(isopropyl)-16-sulfanone]: under setting [1], the EC50 was 74 nM. On the same count and under the same terms, the same measure for `COc1cc(P(C)(C)=O)ccc1NCC#Cc1sc2c(N[C@H]3CCCN(C)C3)cccc2c1CC(F)(F)F` [Example 29, (S)-(3-methoxy-4-((3-(7-((1-methylpiperidin-3-yl)amino)-3-(2,2,2-trifluoroethyl)benzo[b]thiophen-2-yl)prop-2-yn-1-yl)amino)phenyl)dimethylphosphine oxide]: 155 nM. Regarding `COc1cc(P(C)(C)=O)ccc1NCC#Cc1sc2c(N[C@H]3CCN(C)C[C@H]3F)cccc2c1[C@H](O)C(F)(F)F` [Example 32, (4-((3-(7-(((3R,4S)-3-fluoro-1-methylpiperidin-4-yl)amino)-3-((S)-2,2,2-trifluoro-1-hydroxyethyl)benzo[b]thiophen-2-yl)prop-2-yn-1-yl)amino)-3-methoxyphenyl)dimethylphosphine oxide], under setting [1], the EC50 came to 117 nM. The same measure, in the same setting: the figure for `COc1cc(S(C)(=O)=O)ccc1NCC#Cc1sc2c(N[C@H]3CCN(C)C[C@H]3F)cccc2c1CC(F)(F)F` [Example 35, (3R,4S)-3-fluoro-N-(2-(3-((2-methoxy-4-(methylsulfonyl)phenyl)amino)prop-1-yn-1-yl)-3-(2,2,2-trifluoroethyl)benzo[b]thiophen-7-yl)-1-methylpiperidin-4-amine] is 192 nM. As for `COc1cc(P(C)(C)=O)ccc1NCC#Cc1sc2c(N[C@H]3CCN(C)C[C@@H]3F)cccc2c1CC(F)(F)F` [Example 38, (4-((3-(7-(((3S,4S)-3-fluoro-1-methylpiperidin-4-yl)amino)-3-(2,2,2-trifluoroethyl)benzo[b]thiophen-2-yl)prop-2-yn-1-yl)amino)-3-methoxyphenyl)dimethylphosphine oxide], the EC50 under setting [1] worked out at 373 nM. As for `CN1CC[C@@H](Nc2cccc3c(CC(F)(F)F)c(C#CCNc4ccc(P(C)(C)=O)cc4-c4nc(=O)o[nH]4)sc23)[C@@H](F)C1` [Example 39, 3-(5-(dimethylphosphoryl)-2-((3-(7-(((3S,4R)-3-fluoro-1-methylpiperidin-4-yl)amino)-3-(2,2,2-trifluoroethyl)benzo[b]thiophen-2-yl)prop-2-yn-1-yl)amino)phenyl)-1,2,4-oxadiazol-5(2H)-one], under setting [1], the EC50 is 292 nM. With `COc1cc(-c2nc(=O)o[nH]2)ccc1NCC#Cc1sc2c(N[C@@H]3CCN(C)C[C@@H]3F)cccc2c1CC(F)(F)F` [Example 40, 3-(4-((3-(7-(((3S,4R)-3-fluoro-1-methylpiperidin-4-yl)amino)-3-(2,2,2-trifluoroethyl)benzo[b]thiophen-2-yl)prop-2-yn-1-yl)amino)-3-methoxyphenyl)-1,2,4-oxadiazol-5(2H)-one], under setting [1], the EC50 turned out to be 473 nM.

`COc1cc(P(C)(C)=O)ccc1NCC#Cc1sc2c(N[C@H]3CN4CCC3CC4)cccc2c1CC(F)(F)F` [Example 46, (R)-(3-methoxy-4-((3-(7-(quinuclidin-3-ylamino)-3-(2,2,2-trifluoroethyl)benzo[b]thiophen-2-yl)prop-2-yn-1-yl)amino)phenyl)dimethylphosphine oxide] yielded an EC50 of 124 nM. Consider `[2H]C([2H])([2H])Oc1cc(P(C)(C)=S)ccc1NCC#Cc1sc2c(N[C@@H]3CCN(C)C[C@@H]3F)cccc2c1CC(F)(F)F` [Example 47, (4-((3-(7-(((3S,4R)-3-fluoro-1-methylpiperidin-4-yl)amino)-3-(2,2,2-trifluoroethyl)benzo[b]thiophen-2-yl)prop-2-yn-1-yl)amino)-3-(methoxy-d3)phenyl)dimethylphosphine sulfide], for which, under setting [1], the EC50 came out at 180 nM.

Take `COc1cc([S@](=N)(=O)C(F)F)ccc1NCC#Cc1sc2c(N[C@@H]3CCN(C)C[C@@H]3F)cccc2c1CC(F)(F)F` [Example 51, (S)-(difluoromethyl)(4-((3-(7-(((3S,4R)-3-fluoro-1-methylpiperidin-4-yl)amino)-3-(2,2,2-trifluoroethyl)benzo[b]thiophen-2-yl)prop-2-yn-1-yl)amino)-3-methoxyphenyl)(imino)-16-sulfanone]: the EC50 under setting [1] turned out to be 188 nM. Regarding `COc1cc([S@@](=N)(=O)C(F)F)ccc1NCC#Cc1sc2c(N[C@@H]3CCN(C)C[C@@H]3F)cccc2c1CC(F)(F)F` [Example 52, (R)-(difluoromethyl)(4-((3-(7-(((3S,4R)-3-fluoro-1-methylpiperidin-4-yl)amino)-3-(2,2,2-trifluoroethyl)benzo[b]thiophen-2-yl)prop-2-yn-1-yl)amino)-3-methoxyphenyl)(imino)-16-sulfanone], the EC50 under setting [1] was determined as 135 nM.
